Test results: patent US7217710B2, “Substituted pyrazolopyrimidines” (SmithKline Beecham Corporation, priority 2001, dated 2007)

Assays:
Recombinant GST-Tie2 = Recombinant GST-Tie2 (Homo sapiens, UniProt Q02763); assay: Tie2 Fluorescence Polarization Kinase Activity Assay (TIE2-FP); type: biochemical
Protocol: Tie2 Fluorescence Polarization Kinase Activity Assay: (TIE2-FP)
Activation of Recombinant Tie2 Activation:
Recombinant GST-Tie2 is activated by incubating the enzyme in 20 mM Tris-HCl, pH 7.5, 12 mM MgCl2, 100 mM NaCl, 20 μM sodium vanidate, 1 mM DTT and 300 μM ATP at room temperature for 2 hours. The activation mixture is then passed through a NAP-25 desalting column (Pharmacia Biotech cat. no. 17-0852-02) to remove the free ATP. The activated enzyme is stored as aliquots at −80° C. in 20 mM Tris-HCl, pH 7.5 and 100 mM NaCl.
The final assay conditions are 50 mM HEPES, pH 7.5, 5% DMSO (when screening compounds), 200 μM ATP, 5 mM MgCl2, 1 mM DTT, 50 μM sodium vanidate, 1 nM activated enzyme, and 200 μM peptide. IC50's of compounds are measured under subsaturating ATP (200 μM) and varying concentrations of activated Tie2 and peptide substrate (RFWKYEFWR-OH; MW 1873 Da, TFA salt). Panvera Anti-phosphotyrosine antibody (Cat#P2840) and PTK Green Tracer (Cat#P2842) are used to detect the phosphorylated peptide. Polarization is measured on a TECAN Polarion in 138-second cycles for 30 minutes at room temperature. IC50's are then determined from the % polarization using normal calculation methods. The IC50 values are converted to pIC50 values, i.e., −log IC50 in Molar concentration.

GST-VEGFR2 = target: T1, GST-VEGFR2 (Homo sapiens, UniProt P35968); assay: VEGF-R2 Enzyme Assay (VEGF-E2), LANCE method; type: biochemical; settings: for IC50: read-out: VEGFR2 PIC50 VEGFR-E2 assay
T1 construct: GST-VEGFR2, baculovirus expressed recombinant constructs of the intracellular domains; made in house

[1] = target: T2, GST-TIE2 (intracellular domains of human TIE2) (Homo sapiens, UniProt Q02763); assay: TIE-2 Enzyme Assay (TIE2-E2), LANCE method; type: biochemical; settings: for IC50: read-out: TIE2 PIC50 TIE2-E2 assay
T2 construct: made in house
In short: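 GST-tagged human TIE2 intracellular domain (aa 762–1104), preactivated 2 h with 80 μM ATP, then 5 nM enzyme run 2 h at room temperature with 1 μM biotinylated D1–15 peptide, 80 μM ATP, HEPES pH 7.4, 2.4% DMSO. Phosphotyrosine detected by LANCE (Eu anti-pTyr/streptavidin-APC) after EDTA stop; IC50 by nonlinear regression, reported as pIC50.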

[2] = target: T3, catalytic domain of human VEGFR3 (Homo sapiens, UniProt P35916, H890Q); assay: VEGFR-3 Homogenous Time-Resolved Fluorescence Assay (VEGFR-3-HTRF); type: biochemical; settings: for IC50: read-out: VEGFR3 PIC50 VEGFR-3-HTRF assay
T3 construct: made in house; host or cells: Sf9 insect cells (baculovirus, pFastBac1)
In short: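 GST-tagged human VEGFR3 catalytic domain (aa 819–1298, Sf9-expressed), pre-autophosphorylated 45 min with ATP/Mg, then 1 nM enzyme with 0.36 μM biotinylated peptide, 75 μM ATP, 10 mM MgCl2, pH 7.2, 1.5 h at room temperature. EDTA stop; HTRF detection; IC50 from hyperbolic fit of % control.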

[3] = target: T4, TIE2 intracellular domain/c-fms extracellular domain (TIE2/c-fms) chimeric protein (Homo sapiens, UniProt Q02763); assay: TIE-2 Autophosphorylation Assay (TIE2-C); type: cell-based; settings: TIE2/c-fms expressing mouse 3T3 cells
T4 construct: fused on or other part: c-fms (CSF1R) extracellular domain in place of TIE2's own ectodomain; it serves as the capture handle for the anti-c-fms ELISA; P07333 (Macrophage colony-stimulating factor 1 receptor)
Protocol: TIE-2 Autophosphorylation Assay (TIE2-C)
The TIE-2 autophosphorylation assay uses an ELISA method and a TIE2 intracellular domain/c-fms extracellular domain (TIE2/c-fms) chimeric protein expressing mouse 3T3 cell line. This assay measures the autophosphorylation level of TIE2 protein expressed in cells. The cells are cultured in 96 well plates and grown in high glucose DMEM containing 10% serum at 37° C. in a humidified 10% CO2, 90% air incubator. On the day of the assay, the serum containing medium is removed from the cells and replaced with serum free medium for one hour. The test compound (diluted from a 10 mM stock in DMSO, final DMSO concentration is 0.1%) is incubated with TIE2/c-fms expressing cells for 30 minutes in serum free DMEM. Intrinsic cellular dephosphorylation of the receptor is blocked by the addition of the tyrosine phosphatase inhibitor, sodium orthovanadate, from a 100 mM aqueous stock to a final concentration of 1 mM. The culture media is removed by aspiration and the cells incubated for 30 to 60 mins on ice with lysis buffer containing 137 mM NaCl, 2 mM EDTA, 10% glycerol, 1 mM sodium ortho vanadate, 1×tyrosine phosphatase inhibitor cocktail (Sigma) and complete protease inhibitor cocktail (Roche) in 20 mM Tris-HCl (pH8.0). The cell extracts are transferred into Rat anti-c-fms antibody (Zymed-clone 12-2d6) ([…]) coated 96 well plates and incubated for 12 hrs at 4 degrees. The extracts are removed by aspiration and the plate, washed in a buffer comprising PBS, 0.05% Tween-20, 0.05% NP-40 and 5% SuperBlock (Pierce) followed by incubation with an HRP (horseradish peroxidase) conjugated anti-phosphotyrosine antibody, (Upstate Biotech) The plates are again washed with the aforementioned wash buffer and the colorimetric HRP substrate, TMB is added. The reaction progresses for 90 seconds and is stopped with the addition of 2M H2SO4. The optical density at 450 nm derived from HRP catalyzed TMB is measured with a plate reader capable of reading at the appropriate wavelength (e.g. SpectroMax from Molecular Dynamics). The percent inhibition of activity is calculated relative to non-vanadate treated control wells. The concentration of test compound that inhibits 50% of activity (IC50) is interpolated using nonlinear regression (Levernberg-Marquardt) and the equation, y=Vmax (1−x/(K+x))+Y2, where “K” is equal to the IC50.

T1 sequence (P35968 786-1356 limits assumed): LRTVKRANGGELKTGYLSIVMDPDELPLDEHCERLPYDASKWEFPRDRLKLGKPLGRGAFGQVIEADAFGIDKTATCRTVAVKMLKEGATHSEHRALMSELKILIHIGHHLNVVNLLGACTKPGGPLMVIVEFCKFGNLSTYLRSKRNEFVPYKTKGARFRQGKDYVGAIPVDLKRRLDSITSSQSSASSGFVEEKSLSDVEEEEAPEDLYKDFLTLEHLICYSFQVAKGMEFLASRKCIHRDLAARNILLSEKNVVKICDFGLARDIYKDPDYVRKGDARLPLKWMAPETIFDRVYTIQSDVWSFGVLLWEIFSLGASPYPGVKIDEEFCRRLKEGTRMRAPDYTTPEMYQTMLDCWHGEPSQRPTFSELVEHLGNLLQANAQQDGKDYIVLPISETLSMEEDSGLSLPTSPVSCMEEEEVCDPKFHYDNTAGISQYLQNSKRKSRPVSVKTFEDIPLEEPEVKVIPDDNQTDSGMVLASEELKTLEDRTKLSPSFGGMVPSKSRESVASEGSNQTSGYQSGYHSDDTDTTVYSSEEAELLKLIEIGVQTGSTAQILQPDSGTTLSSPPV
T3 sequence (P35916 with tags, fused parts or gaps isoform P35916-1 H890Q): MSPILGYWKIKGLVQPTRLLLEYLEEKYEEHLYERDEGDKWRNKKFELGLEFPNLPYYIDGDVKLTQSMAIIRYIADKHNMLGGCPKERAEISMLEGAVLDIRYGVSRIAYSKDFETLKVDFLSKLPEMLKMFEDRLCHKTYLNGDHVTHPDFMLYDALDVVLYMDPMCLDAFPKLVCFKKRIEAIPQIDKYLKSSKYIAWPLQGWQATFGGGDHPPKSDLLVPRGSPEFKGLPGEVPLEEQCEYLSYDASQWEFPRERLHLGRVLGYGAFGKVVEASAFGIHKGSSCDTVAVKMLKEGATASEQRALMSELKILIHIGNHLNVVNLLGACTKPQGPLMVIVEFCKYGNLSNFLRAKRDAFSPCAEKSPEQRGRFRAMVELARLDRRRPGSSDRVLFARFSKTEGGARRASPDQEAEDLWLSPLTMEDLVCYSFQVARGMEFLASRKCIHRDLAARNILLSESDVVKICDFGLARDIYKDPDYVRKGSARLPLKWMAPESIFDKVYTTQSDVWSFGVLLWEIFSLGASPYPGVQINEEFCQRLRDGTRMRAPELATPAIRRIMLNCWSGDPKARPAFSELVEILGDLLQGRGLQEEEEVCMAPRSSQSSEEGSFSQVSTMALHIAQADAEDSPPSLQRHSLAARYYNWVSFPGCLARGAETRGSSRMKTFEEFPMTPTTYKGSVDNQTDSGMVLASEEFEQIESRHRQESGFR
T4 sequence (Q02763 whole entry, change not shown, the tested form may be a part): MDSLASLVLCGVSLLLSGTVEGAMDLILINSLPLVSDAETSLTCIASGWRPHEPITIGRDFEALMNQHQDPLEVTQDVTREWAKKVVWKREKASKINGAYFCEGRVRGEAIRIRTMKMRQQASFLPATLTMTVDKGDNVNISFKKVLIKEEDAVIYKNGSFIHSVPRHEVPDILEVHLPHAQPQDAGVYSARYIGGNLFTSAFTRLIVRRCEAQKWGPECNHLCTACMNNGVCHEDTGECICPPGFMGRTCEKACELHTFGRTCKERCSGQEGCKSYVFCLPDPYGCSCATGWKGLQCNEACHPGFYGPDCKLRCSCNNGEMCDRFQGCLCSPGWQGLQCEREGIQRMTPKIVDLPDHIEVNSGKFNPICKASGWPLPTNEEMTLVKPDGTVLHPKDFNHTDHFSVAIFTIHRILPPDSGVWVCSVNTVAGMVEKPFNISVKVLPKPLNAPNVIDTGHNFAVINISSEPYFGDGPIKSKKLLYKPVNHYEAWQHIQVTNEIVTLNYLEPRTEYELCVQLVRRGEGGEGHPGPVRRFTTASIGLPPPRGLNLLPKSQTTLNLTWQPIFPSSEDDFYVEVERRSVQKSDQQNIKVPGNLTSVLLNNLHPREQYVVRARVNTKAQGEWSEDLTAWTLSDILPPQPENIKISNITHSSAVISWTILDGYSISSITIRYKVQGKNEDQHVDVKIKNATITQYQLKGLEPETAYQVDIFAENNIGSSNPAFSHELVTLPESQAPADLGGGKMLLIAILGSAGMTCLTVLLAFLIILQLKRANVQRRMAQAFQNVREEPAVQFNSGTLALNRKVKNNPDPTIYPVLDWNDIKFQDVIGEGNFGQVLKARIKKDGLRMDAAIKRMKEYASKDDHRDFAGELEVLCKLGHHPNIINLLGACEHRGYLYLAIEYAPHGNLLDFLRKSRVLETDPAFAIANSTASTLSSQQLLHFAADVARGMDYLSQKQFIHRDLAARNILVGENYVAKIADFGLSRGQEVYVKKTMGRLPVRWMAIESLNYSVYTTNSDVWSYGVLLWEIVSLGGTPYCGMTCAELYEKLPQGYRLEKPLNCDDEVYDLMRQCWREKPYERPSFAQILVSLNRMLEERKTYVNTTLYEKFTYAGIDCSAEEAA
T2 sequence (Q02763 762-1104): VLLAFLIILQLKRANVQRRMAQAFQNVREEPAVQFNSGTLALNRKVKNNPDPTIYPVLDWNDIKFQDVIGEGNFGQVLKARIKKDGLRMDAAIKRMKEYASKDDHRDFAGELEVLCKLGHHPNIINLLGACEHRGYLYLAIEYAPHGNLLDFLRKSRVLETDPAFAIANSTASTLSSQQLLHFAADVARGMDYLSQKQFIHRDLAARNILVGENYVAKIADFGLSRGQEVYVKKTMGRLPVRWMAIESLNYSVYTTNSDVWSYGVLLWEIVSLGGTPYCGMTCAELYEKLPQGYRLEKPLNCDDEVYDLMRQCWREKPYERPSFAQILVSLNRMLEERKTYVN
Chain of Recombinant GST-Tie2 (Q02763 23-1124): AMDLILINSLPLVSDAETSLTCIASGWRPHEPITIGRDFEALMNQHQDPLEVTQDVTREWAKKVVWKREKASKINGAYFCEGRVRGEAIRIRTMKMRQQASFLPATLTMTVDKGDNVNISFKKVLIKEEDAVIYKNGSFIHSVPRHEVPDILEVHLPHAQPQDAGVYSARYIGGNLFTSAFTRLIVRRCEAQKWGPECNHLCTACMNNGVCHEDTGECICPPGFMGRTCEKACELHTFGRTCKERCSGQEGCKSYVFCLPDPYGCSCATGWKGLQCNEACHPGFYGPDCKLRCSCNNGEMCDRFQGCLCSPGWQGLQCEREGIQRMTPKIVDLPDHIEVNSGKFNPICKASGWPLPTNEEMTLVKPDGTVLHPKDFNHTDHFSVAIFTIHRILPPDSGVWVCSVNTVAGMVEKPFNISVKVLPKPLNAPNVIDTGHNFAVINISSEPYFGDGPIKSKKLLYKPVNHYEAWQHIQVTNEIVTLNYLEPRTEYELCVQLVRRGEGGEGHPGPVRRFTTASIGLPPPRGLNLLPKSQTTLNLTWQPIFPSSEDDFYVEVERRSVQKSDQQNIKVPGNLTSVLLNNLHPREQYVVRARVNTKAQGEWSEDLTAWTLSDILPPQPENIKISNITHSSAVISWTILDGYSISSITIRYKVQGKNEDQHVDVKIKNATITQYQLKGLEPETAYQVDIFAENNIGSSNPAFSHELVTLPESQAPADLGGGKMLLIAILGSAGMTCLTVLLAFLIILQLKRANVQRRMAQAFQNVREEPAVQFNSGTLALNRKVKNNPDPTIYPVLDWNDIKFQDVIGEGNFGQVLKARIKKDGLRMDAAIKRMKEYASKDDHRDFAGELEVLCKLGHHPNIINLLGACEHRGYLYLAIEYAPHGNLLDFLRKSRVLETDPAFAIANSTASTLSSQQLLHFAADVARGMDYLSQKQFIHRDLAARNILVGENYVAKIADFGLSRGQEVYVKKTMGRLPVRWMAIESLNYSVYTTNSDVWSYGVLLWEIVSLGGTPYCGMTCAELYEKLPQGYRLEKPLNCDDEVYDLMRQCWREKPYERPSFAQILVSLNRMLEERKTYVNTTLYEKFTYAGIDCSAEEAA

| inhibition at 10 µM (Recombinant GST-Tie2) [%] | IC50 (GST-VEGFR2) [nM] | IC50 [1] [nM] | IC50 [2] [nM] | IC50 [3] [nM] | Molecule | other results |
| --- | --- | --- | --- | --- | --- | --- |
| 23 |  |  |  |  | Cc1cc(-c2nn(C)c3nc(NCCN4CCOCC4)ncc23)ccc1NS(=O)(=O)c1cc(Cl)sc1Cl [Example 155] |  |
| 23 |  |  |  |  | Cn1nc(-c2ccc(NS(=O)(=O)c3cccc(C(F)(F)F)c3)cc2)c2cnc(NCCN3CCOCC3)nc21 [Example 156] |  |
| 0 | > 10000 |  |  |  | Cn1nc(-c2ccc(NS(=O)(=O)c3cccc(C(F)(F)F)c3)c(C(F)(F)F)c2)c2cnc(NCCN3CCOCC3)nc21 [Example 157] |  |
| 25 |  | > 10000 |  |  | CC(=O)c1cccc(NC(=O)Nc2ccc(-c3nn(C)c4nc(NCCN5CCOCC5)ncc34)cc2C)c1 [Example 163] |  |
| 41 |  |  |  |  | Cn1nc(-c2ccc(NS(=O)(=O)c3ccc(Cl)s3)cc2)c2cnc(NCCN3CCOCC3)nc21 [Example 150] |  |
| 49 |  |  |  |  | Cn1nc(-c2ccc(NS(=O)(=O)c3cccc(Cl)c3Cl)cc2)c2cnc(NCCN3CCOCC3)nc21 [Example 147] |  |
| 37 |  |  |  |  | Cc1cc(-c2nn(C)c3nc(NCCN4CCOCC4)ncc23)ccc1NS(=O)(=O)c1ccc(Cl)s1 [Example 154] |  |
| 41 | > 10000 |  |  |  | Cc1cc(-c2nn(C)c3nc(NCCN4CCOCC4)ncc23)ccc1NS(=O)(=O)c1cccc(Cl)c1Cl [Example 151] |  |
| 36 |  |  |  |  | Cn1nc(-c2ccc(NS(=O)(=O)c3ccccc3F)cc2)c2cnc(NCCN3CCOCC3)nc21 [Example 148] |  |
|  | 100 to 1000 | ≤ 39.8 | 1000 to 10000 | ≥ 300 | Cn1nc(-c2ccc(NC(=O)Nc3cc(C(F)(F)F)ccc3F)cc2)c2cnc(NCCCn3ccnc3)nc21 [Example 100, 1-(2-Fluoro-5-trifluoromethyl-phenyl)-3-{4-[1-methyl-6-(3-imidazol-1-yl-propylamino)-1H-pyrazolo[3,4-d]pyrimidin-3-yl]-phenyl} urea] |  |
| 13 |  |  |  |  | Cc1cc(-c2nn(C)c3nc(NCCN4CCOCC4)ncc23)ccc1NS(=O)(=O)c1cccc(C(F)(F)F)c1 [Example 152] |  |
| 44 |  |  |  |  | Cc1cc(-c2nn(C)c3nc(NCCN4CCOCC4)ncc23)ccc1NS(=O)(=O)c1ccccc1F [Example 153] |  |
| 38 |  |  |  |  | Cn1nc(-c2ccc(NS(=O)(=O)c3cc(Cl)sc3Cl)cc2)c2cnc(NCCN3CCOCC3)nc21 [Example 149] |  |

Second part, the molecule before the results:

| Molecule | inhibition at 10 µM (Recombinant GST-Tie2) [%] | IC50 (GST-VEGFR2) [nM] | IC50 [1] [nM] | IC50 [2] [nM] | IC50 [3] [nM] | other results |
| --- | --- | --- | --- | --- | --- | --- |
| Cn1nc(-c2ccc(NC(=O)Nc3cc(C(F)(F)F)ccc3F)cc2)c2cnc(NCCCCN3CCCC3)nc21 [Example 91, 1-(2-Fluoro-5-trifluoromethyl-phenyl)-3-{4-[1-methyl-6-[(4-pyrrolidin-1-yl)-butylamino]-1H-pyrazolo[3,4-d]pyrimidin-3-yl]-phenyl} urea] |  | 1000 to 10000 | ≤ 39.8 | 1000 to 10000 | 100 to 300 |  |
| Cn1nc(-c2ccc(NC(=O)Nc3cc(C(F)(F)F)ccc3F)cc2)c2cnc(NCCCO)nc21 [Example 92, 1-(2-Fluoro-5-trifluoromethyl-phenyl)-3-{4-[1-methyl-6-(3-hydroxy-propylamino)-1H-pyrazolo[3,4-d]pyrimidin-3-yl]-phenyl} urea] |  | 1000 to 10000 | ≤ 39.8 | 1000 to 10000 | < 100 |  |
| Cn1nc(-c2ccc(NC(=O)Nc3cc(C(C)(C)C)on3)c(F)c2)c2cnc(NCCN3CCOCC3)nc21 [Example 57, 1-(5-tert-Butyl-isoxazol-3-yl)-3-{2-fluoro-4-[1-methyl-6-(2-morpholin-4-yl-ethylamino)-1H-pyrazolo[3,4-d]pyrimidin-3-yl]-phenyl}-urea] |  | 1000 to 10000 | ≤ 39.8 | 1000 to 10000 | 100 to 300 |  |
| CC(C)n1nc(-c2ccc(NC(=O)Nc3cc(C(F)(F)F)ccc3F)cc2)c2cnc(NCCN3CCOCC3)nc21 [Example 78] |  |  |  |  | ≥ 300 | TIE2 PIC50 TIE2-E2 assay [1]: +++ (+++ = PIC50 = 7.00 to less than 7.40); VEGFR2 PIC50 VEGFR-E2 assay (GST-VEGFR2): + (+ = PIC50 = 5.00 to less than 6.00); VEGFR3 PIC50 VEGFR-3-HTRF assay [2]: + (+ = PIC50 = 5.00 to less than 6.00) |
| CCN(CC)CCNc1ncnc2c1c(-c1ccc(NC(=O)Nc3cc(C(F)(F)F)ccc3F)cc1)nn2C [Example 33, 1-{4-[(2-Diethylamino-ethylamino)-methyl-1H-pyrazolo[3,4-d]pyrimidin-3-yl]-phenyl}-3-(2-fluoro-5-trifluoromethyl-phenyl)-urea] |  |  |  |  |  | IC50 (Recombinant GST-Tie2): ≥ 300 nM |
| CN1CCN(CCCNc2ncc3c(-c4ccc(NC(=O)Nc5cc(C(F)(F)F)ccc5F)cc4)nn(C)c3n2)CC1 [Example 64] |  | > 10000 | ≤ 39.8 | > 10000 | ≥ 300 |  |
| Cn1nc(-c2ccc(NC(=O)Nc3cc(C(F)(F)F)ccc3F)cc2)c2cnc(NCCCCO)nc21 [Example 93, 1-(2-Fluoro-5-trifluoromethyl-phenyl)-3-{4-[1-methyl-6-(4-hydroxy-butylamino)-1H-pyrazolo[3,4-d]pyrimidin-3-yl]-phenyl} urea] |  | 1000 to 10000 | ≤ 39.8 | 1000 to 10000 | 100 to 300 |  |
| Cn1nc(-c2ccc(NC(=O)Nc3cc(C(F)(F)F)ccc3F)cc2)c2cnc(NCCN3CCNC3=O)nc21 [Example 90] |  | 1000 to 10000 | 39.8 to 100 | 1000 to 10000 | ≥ 300 |  |
| 1-(5-tert-Butyl-isoxazol-3-yl)-3-{2-fluoro-4-[1-methyl-6-(3-(imidazol-1-yl propylamino)-1H-pyrazolo[3,4-d]pyrimidin-3-yl)-phenyl]} urea [Example 139] |  |  |  |  | 100 to 300 | TIE2 PIC50 TIE2-E2 assay [1]: ++++ (++++ = PIC50 = greater than or equal to 7.40); VEGFR2 PIC50 VEGFR-E2 assay (GST-VEGFR2): + (+ = PIC50 = 5.00 to less than 6.00); VEGFR3 PIC50 VEGFR-3-HTRF assay [2]: + (+ = PIC50 = 5.00 to less than 6.00) |
| Cn1nc(-c2ccc(NC(=O)Nc3cc(C(F)(F)F)ccc3F)cc2)c2cnc(NCCO)nc21 [Example 29, 1-(2-Fluoro-5-trifluoromethyl-phenyl)-3-{4-[(2-hydroxy-ethylamino)-methyl-1H-pyrazolo[3,4-d]pyrimidin-3-yl]-phenyl}-urea] |  |  |  |  |  | IC50 (Recombinant GST-Tie2): 100 to 300 nM |
